Data as given in the NIST ThermoML archive (doi:10.1016/j.jct.2005.03.012).

Assay: molar heat capacity at constant pressure; xn = mol fraction of the nth substance listed
Conditions: Liquid, Flow calorimetry

CO [methanol] + O
Conditions	molar heat capacity at constant pressure [J/K/mol]
329.01 K, 5000 kPa, x1 = 0.9	88.91
330.62 K, 10000 kPa, x1 = 0.8	89.87
330.92 K, 5000 kPa, x1 = 0.8	90.19
330.98 K, 2000 kPa, x1 = 0.8	89.81
331.74 K, 5000 kPa, x1 = 0.1	82.22
332.15 K, 5000 kPa, x1 = 0.7	90.68
333.12 K, 10000 kPa, x1 = 0.6	90
333.19 K, 5000 kPa, x1 = 0.6	90.87
333.43 K, 5000 kPa, x1 = 0.2	86.68
333.48 K, 10000 kPa, x1 = 0.2	86.18
333.52 K, 2000 kPa, x1 = 0.6	90.9
333.71 K, 2000 kPa, x1 = 0.2	86.86
333.89 K, 5000 kPa, x1 = 0.5	90.43
333.95 K, 5000 kPa, x1 = 0.4	89.97
334 K, 5000 kPa, x1 = 0.3	88.54
334.08 K, 10000 kPa, x1 = 0.4	89.57
334.13 K, 2000 kPa, x1 = 0.4	90.16
352.61 K, 5000 kPa, x1 = 0.9	95.17
354.08 K, 5000 kPa, x1 = 0.8	95.72
354.53 K, 5000 kPa, x1 = 0.1	82.78
355.25 K, 5000 kPa, x1 = 0.7	96.11
355.71 K, 5000 kPa, x1 = 0.6	95.6
355.86 K, 5000 kPa, x1 = 0.5	94.46
355.92 K, 5000 kPa, x1 = 0.2	87.32
356.11 K, 5000 kPa, x1 = 0.4	92.66
356.17 K, 5000 kPa, x1 = 0.3	90.87
376.69 K, 5000 kPa, x1 = 0.9	102.61
377.42 K, 5000 kPa, x1 = 0.8	102.59
377.92 K, 5000 kPa, x1 = 0.1	83.23
377.99 K, 5000 kPa, x1 = 0.7	101.84
378.34 K, 5000 kPa, x1 = 0.6	100.47
378.47 K, 5000 kPa, x1 = 0.5	98.56
378.64 K, 5000 kPa, x1 = 0.4	96.44
378.77 K, 5000 kPa, x1 = 0.3	92.83
378.78 K, 5000 kPa, x1 = 0.2	88.72
424.2 K, 5000 kPa, x1 = 0.5	107.27
424.22 K, 5000 kPa, x1 = 0.4	102.77
424.24 K, 5000 kPa, x1 = 0.7	114.48
424.36 K, 10000 kPa, x1 = 0.4	101.14
424.4 K, 2000 kPa, x1 = 0.4	102.94
424.42 K, 2000 kPa, x1 = 0.6	111.49
424.47 K, 5000 kPa, x1 = 0.6	111.25
424.53 K, 10000 kPa, x1 = 0.6	108.79
424.54 K, 5000 kPa, x1 = 0.8	118.06
424.59 K, 2000 kPa, x1 = 0.8	118.73
424.59 K, 10000 kPa, x1 = 0.8	118.7
424.7 K, 10000 kPa, x1 = 0.2	91.26
424.77 K, 2000 kPa, x1 = 0.2	92.01
424.89 K, 5000 kPa, x1 = 0.9	121.27
424.97 K, 5000 kPa, x1 = 0.3	97.58
425.05 K, 5000 kPa, x1 = 0.2	91.9
425.68 K, 5000 kPa, x1 = 0.1	85.15
437.16 K, 8500 kPa, x1 = 0.6	124.31
471.84 K, 10000 kPa, x1 = 0.6	122.64
471.87 K, 10000 kPa, x1 = 0.4	110.24
472.32 K, 5000 kPa, x1 = 0.4	111.75
472.41 K, 8500 kPa, x1 = 0.4	110.52
472.56 K, 5000 kPa, x1 = 0.5	119.44
472.78 K, 8500 kPa, x1 = 0.2	96.55
472.91 K, 5000 kPa, x1 = 0.3	104.69
472.98 K, 5000 kPa, x1 = 0.6	127.9
473.11 K, 5000 kPa, x1 = 0.7	135.08
473.16 K, 5000 kPa, x1 = 0.8	143
473.21 K, 10000 kPa, x1 = 0.8	135.8
473.53 K, 10000 kPa, x1 = 0.2	96.73
473.95 K, 5000 kPa, x1 = 0.9	153.78
474.26 K, 5000 kPa, x1 = 0.2	96.84
474.27 K, 5000 kPa, x1 = 0.1	89.79
474.92 K, 8500 kPa, x1 = 0.8	138.52
497 K, 10000 kPa, x1 = 0.2	100.23
497 K, 10000 kPa, x1 = 0.4	117.78
497.3 K, 8500 kPa, x1 = 0.3	109.45
497.56 K, 8500 kPa, x1 = 0.4	118.93
497.97 K, 8500 kPa, x1 = 0.2	101.63
498.08 K, 8500 kPa, x1 = 0.5	128.47
498.33 K, 8500 kPa, x1 = 0.6	139.08
498.46 K, 10000 kPa, x1 = 0.6	136.33
499.19 K, 8500 kPa, x1 = 0.1	92.18
499.79 K, 8500 kPa, x1 = 0.8	166.33
499.83 K, 10000 kPa, x1 = 0.8	159.51
499.85 K, 8500 kPa, x1 = 0.7	152.5
500.37 K, 8500 kPa, x1 = 0.9	185.8
507.38 K, 10000 kPa, x1 = 0.2	104.52
507.6 K, 10000 kPa, x1 = 0.4	122.36
508.54 K, 10000 kPa, x1 = 0.6	145.98
508.68 K, 8500 kPa, x1 = 0.1	95.38
508.96 K, 8500 kPa, x1 = 0.2	103.83
509.5 K, 10000 kPa, x1 = 0.8	178.64
509.58 K, 8500 kPa, x1 = 0.4	124.67
510.29 K, 8500 kPa, x1 = 0.5	137.86
510.32 K, 8500 kPa, x1 = 0.3	114.54
511.09 K, 8500 kPa, x1 = 0.8	204.86
511.15 K, 8500 kPa, x1 = 0.7	175.97
511.4 K, 8500 kPa, x1 = 0.6	155.15
511.68 K, 8500 kPa, x1 = 0.9	268
513.62 K, 10000 kPa, x1 = 0.5	138.48
514.03 K, 10000 kPa, x1 = 0.4	126.54
514.03 K, 10000 kPa, x1 = 0.6	154.89
514.08 K, 10000 kPa, x1 = 0.3	115.36
514.53 K, 10000 kPa, x1 = 0.1	95.01
514.91 K, 10000 kPa, x1 = 0.2	105.19
514.98 K, 10000 kPa, x1 = 0.9	229.95
515.2 K, 10000 kPa, x1 = 0.8	198.37
515.25 K, 10000 kPa, x1 = 0.7	174.88
515.73 K, 8500 kPa, x1 = 0.1	95.69
516.4 K, 8500 kPa, x1 = 0.9	508.52
517.62 K, 8500 kPa, x1 = 0.2	106.77
517.97 K, 8500 kPa, x1 = 0.3	119.14
518.82 K, 8500 kPa, x1 = 0.8	303.27
519.33 K, 8500 kPa, x1 = 0.4	133.94
519.69 K, 8500 kPa, x1 = 0.7	212.23
520.61 K, 8500 kPa, x1 = 0.5	150.12
522.42 K, 8500 kPa, x1 = 0.6	186.76
